Source: patent publication US20240099304A1, “SYNERGISTIC HERBICIDAL COMPOSITIONS OF METAMIFOP” (Parijat Industries (India) Private Limited, priority 2021, published 2024)

Legend:
Assay type in all cases: in vivo
Brachiaria eruciformis = assay: Field efficacy on grass weed in soybean, post-emergence foliar application
Experimental: (§1) As described in the Herbicide Handbook of the Weed Science Society of America, Ninth Edition, 2007, p. 429, “synergism” [is] an interaction of two or more factors such that the effect when combined is greater than the predicted effect based on the response to each factor applied separately. In the Colby method, the expected (or predicted) response of a combination of herbicides is calculated by taking the product of the observed response for each individual component of the combination when applied alone divided by 100 and subtracting this value from the sum of the observed response for each component while applied alone. An unexpected enhancement in efficacy of the combination is then determined by comparing the observed response of the combination to the expected (or predicted) response as calculated from the observed response of each individual component alone. If the observed response of the combination is greater than the expected (or predicted) response, or stated conversely, if the difference between the observed and expected response is greater than zero, then the combination is said to be synergistic or unexpectedly effective. (Colby, S. R., Weeds, 1967(15), p. 20-22). The Colby method required only a single dose of each herbicide applied alone and the mixture of both doses.
(§2) Synergy Study: The following formula was used to calculate the expected activity of mixtures containing active ingredients, A and B:
(§3) • A=Observed efficacy of active ingredient (combination of Metamifop and Imidazolinone herbicides) A at the same concentration as used in the mixture. • B=observed efficacy of active ingredient B at the same concentration as used in the mixture. However, following formula was used to calculate the expected activity of mixtures containing three active ingredients, A, B and C:
(§4) • A=observed efficacy of active ingredient (combination of Metamifop and Imidazolinone herbicides) A at the same concentration as used in the mixture. • B=observed efficacy of active ingredient B at the same concentration as used in the mixture. • C=observed efficacy of active ingredient C at the same concentration as used in the mixture.
(§5) EFFICACY STUDY: The field experiments were carried out to test the synergy of the combination Metamifop, Imazethapyr, and Imazamox in India at various locations like in MP, Maharashtra, Karnataka, and Telangana on farmer's field against soybean weeds during Kharif season. The experiment comprising of 15 treatments including premixed binary and ternary combinations along with their stand-alone molecule using a randomized block design replicated thrice. All the treatments were applied as post-emergence foliar application when the weeds reached to two to four leaf stage. The spray was conducted with the help of Battery-operated Knapsack sprayer. The percentage efficacy was calculated after 14 and 21 days after application of herbicides.
(§6) The weeds present in the experimental fields were echinochloa conola, echinochloa crusgalli, brachiaria euriciformis, rottboellia cochinchinensis, cynodon dactylon, parthenium hyterophorus, digera arvensis, cynotis axillaris, acalypha indica, Commelina benghalensis, celosia argentia, cyperus spp.

[1] = system: Rottboellia cochinchinensis; assay: as above
Experimental: as §1, §2, §3, §4, §5, §6

Echinochloa crusgalli = assay: as above
Experimental: as §1, §2, §3, §4, §5, §6

[2] = system: hard to kill broad leaf weeds; assay: Field efficacy, summary on broad leaf weeds
Experimental: as §1, §5

Soybean = assay: Phytotoxicity in Soybean, visual grading on 0-10 scale; conditions: soybean, in vivo
Experimental: as §5
Phytotoxic effect of herbicidal combination of Metamifop, Imazethapyr and Imazamox in soyabean: Table 5, 10 show the visual observations and grading on phytotoxicity which was recorded for leaf injury on tip/surface, Epinasty/Hyponasty, and wilting etc. on 0-10 scale (as below) at 1, 3, 7, 14 and 21 days after application of the present herbicidal composition.

Commelina benghalensis = assay: Field efficacy on broad leaf weed in soybean, post-emergence foliar application
Experimental: as §1, §2, §3, §4, §5, §6

Parthenium hysterophorus = assay: as above
Experimental: as §1, §2, §3, §4, §5, §6

Cyanotis axillaris = assay: as above
Experimental: as §1, §2, §3, §4, §5, §6

[3] = 14 DAA, Imazethapyr 35 gm ai/ha
[4] = 14 DAA, Imazethapyr 40 gm ai/ha
[5] = 14 DAA, Imazethapyr 50 gm ai/ha
[6] = 14 DAA, Imazethapyr 75.375 gm ai/ha
[7] = 21 DAA, Imazethapyr 35 gm ai/ha
[8] = 21 DAA, Imazethapyr 40 gm ai/ha
[9] = 21 DAA, Imazethapyr 50 gm ai/ha
[10] = 21 DAA, Imazethapyr 75.375 gm ai/ha

CCc1cnc(C2=NC(C)(C(C)C)C(=O)N2)c(C(=O)O)c1 (stereo not shown) [Imazethapyr]
% Weed control burn down symptoms generation Observed (Brachiaria eruciformis; [3]): 8%
% Weed control burn down symptoms generation Observed (Brachiaria eruciformis; [4]): 10%
% Weed control burn down symptoms generation Observed (Brachiaria eruciformis; [5]): 20%
% Weed control burn down symptoms generation Observed (Brachiaria eruciformis; [6]): 22%
% Weed control burn down symptoms generation Observed (Brachiaria eruciformis; [7]): 0%
% Weed control burn down symptoms generation Observed (Brachiaria eruciformis; [8]): 0%
% Weed control burn down symptoms generation Observed (Brachiaria eruciformis; [9]): 0%
% Weed control burn down symptoms generation Observed (Brachiaria eruciformis; [10]): 15%
% Weed control burn down symptoms generation Observed [1, 3]: 0%
% Weed control burn down symptoms generation Observed [1, 4]: 0%
% Weed control burn down symptoms generation Observed [1, 5]: 25%
% Weed control burn down symptoms generation Observed [1, 6]: 30%
% Weed control burn down symptoms generation Observed [1, 7]: 0%
% Weed control burn down symptoms generation Observed [1, 8]: 0%
% Weed control burn down symptoms generation Observed [1, 9]: 0%
% Weed control burn down symptoms generation Observed [1, 10]: 0%
% Weed control burn down symptoms generation Observed (Echinochloa crusgalli; [3]): 15%
% Weed control burn down symptoms generation Observed (Echinochloa crusgalli; [4]): 18%
% Weed control burn down symptoms generation Observed (Echinochloa crusgalli; [5]): 18%
% Weed control burn down symptoms generation Observed (Echinochloa crusgalli; [6]): 20%
% Weed control burn down symptoms generation Observed (Echinochloa crusgalli; [7]): 8%
% Weed control burn down symptoms generation Observed (Echinochloa crusgalli; [8]): 12%
% Weed control burn down symptoms generation Observed (Echinochloa crusgalli; [9]): 16%
% Weed control burn down symptoms generation Observed (Echinochloa crusgalli; [10]): 18%
Control on targeted weeds, applied alone ([2]; at 14 days): no or very less control
Control on targeted weeds, applied alone ([2]; at 21 days): no or very less control
Phytotoxicity score (Soybean; 1 days after application): 0
Phytotoxicity score (Soybean; 3 days after application): 0
Phytotoxicity score (Soybean; 7 days after application): 0
Phytotoxicity score (Soybean; 14 days after application): 0
Phytotoxicity score (Soybean; 21 days after application): 0
% Weed control burn down symptoms generation Observed (Commelina benghalensis; [3]): 6%
% Weed control burn down symptoms generation Observed (Commelina benghalensis; [4]): 22%
% Weed control burn down symptoms generation Observed (Commelina benghalensis; [5]): 35%
% Weed control burn down symptoms generation Observed (Commelina benghalensis; [6]): 56%
% Weed control burn down symptoms generation Observed (Commelina benghalensis; [7]): 0%
% Weed control burn down symptoms generation Observed (Commelina benghalensis; [8]): 13%
% Weed control burn down symptoms generation Observed (Commelina benghalensis; [9]): 20%
% Weed control burn down symptoms generation Observed (Commelina benghalensis; [10]): 45%
% Weed control burn down symptoms generation Observed (Parthenium hysterophorus; [3]): 0%
% Weed control burn down symptoms generation Observed (Parthenium hysterophorus; [4]): 6%
% Weed control burn down symptoms generation Observed (Parthenium hysterophorus; [5]): 11%
% Weed control burn down symptoms generation Observed (Parthenium hysterophorus; [6]): 28%
% Weed control burn down symptoms generation Observed (Parthenium hysterophorus; [7]): 0%
% Weed control burn down symptoms generation Observed (Parthenium hysterophorus; [8]): 4%
% Weed control burn down symptoms generation Observed (Parthenium hysterophorus; [9]): 6%
% Weed control burn down symptoms generation Observed (Parthenium hysterophorus; [10]): 15%
% Weed control burn down symptoms generation Observed (Cyanotis axillaris; [3]): 12%
% Weed control burn down symptoms generation Observed (Cyanotis axillaris; [4]): 25%
% Weed control burn down symptoms generation Observed (Cyanotis axillaris; [5]): 447%
% Weed control burn down symptoms generation Observed (Cyanotis axillaris; [6]): 0%
% Weed control burn down symptoms generation Observed (Cyanotis axillaris; [7]): 0%
% Weed control burn down symptoms generation Observed (Cyanotis axillaris; [8]): 7%
% Weed control burn down symptoms generation Observed (Cyanotis axillaris; [9]): 20%
% Weed control burn down symptoms generation Observed (Cyanotis axillaris; [10]): 36%
